From US7858630B2, “D3 and 5-HT2A receptor modulators” (Hoffmann-La Roche Inc., priority 2008, dated 2010)

What was measured:
[1] = biological target: T1, human dopamine D3 receptor (Homo sapiens, UniProt P35462); assay: Radioligand binding ([3H]-spiperone) to membranes of HEK-293 EBNA cells expressing human D3 receptor; conditions: human D3, 0.5 nM [3H]-spiperone, HEK-293 EBNA membranes, 1 h at RT
T1 construct: expressed in transfected cells; host or cells: HEK-293 EBNA cells, transient transfection; membrane preparation
Procedure, shortened: (§1)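 Membranes from HEK-293 EBNA cells transiently transfected with the receptor were incubated 1 h at RT with ten test concentrations (10 μM–0.1 nM) and ~0.7 nM [3H]-spiperone (D2), 0.5 nM [3H]-spiperone (D3) or 1.1 nM [3H]-ketanserin (5-HT2A). Nonspecific binding was set with 10 μM spiperone, bound radioactivity was read by filtration and scintillation, and Ki was taken from IC50 via Cheng-Prusoff.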

[2] = biological target: T2, human serotonin 5-HT2A receptor (Homo sapiens, UniProt P28223); assay: Radioligand binding ([3H]-ketanserin) to membranes of HEK-293 EBNA cells expressing human 5-HT2A receptor; conditions: 1.1 nM [3H]-ketanserin, HEK-293 EBNA membranes, 1 h at RT
T2 construct: expressed in transfected cells; host or cells: HEK-293 EBNA cells, transient transfection; membrane preparation
Procedure, shortened: as §1

[3] = biological target: T3, human dopamine D2 receptor (Homo sapiens, UniProt P14416); assay: Radioligand binding ([3H]-spiperone) to membranes of HEK-293 EBNA cells expressing human D2 receptor; conditions: human D2, 0.7 nM [3H]-spiperone, HEK-293 EBNA membranes, 1 h at RT
T3 construct: expressed in transfected cells; host or cells: HEK-293 EBNA cells, transient transfection; membrane preparation
Procedure, shortened: as §1

T1 sequence (P35462 whole entry): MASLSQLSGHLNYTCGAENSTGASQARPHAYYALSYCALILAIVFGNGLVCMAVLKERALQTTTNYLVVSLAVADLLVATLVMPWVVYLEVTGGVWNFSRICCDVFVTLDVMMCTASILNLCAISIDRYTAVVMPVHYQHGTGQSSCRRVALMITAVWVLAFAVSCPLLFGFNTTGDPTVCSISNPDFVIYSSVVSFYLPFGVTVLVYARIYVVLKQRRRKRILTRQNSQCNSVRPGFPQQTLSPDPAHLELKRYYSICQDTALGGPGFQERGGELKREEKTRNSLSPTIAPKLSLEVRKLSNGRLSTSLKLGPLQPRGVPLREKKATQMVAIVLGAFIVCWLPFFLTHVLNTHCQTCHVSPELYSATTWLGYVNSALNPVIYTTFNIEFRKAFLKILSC
T2 sequence (P28223 whole entry): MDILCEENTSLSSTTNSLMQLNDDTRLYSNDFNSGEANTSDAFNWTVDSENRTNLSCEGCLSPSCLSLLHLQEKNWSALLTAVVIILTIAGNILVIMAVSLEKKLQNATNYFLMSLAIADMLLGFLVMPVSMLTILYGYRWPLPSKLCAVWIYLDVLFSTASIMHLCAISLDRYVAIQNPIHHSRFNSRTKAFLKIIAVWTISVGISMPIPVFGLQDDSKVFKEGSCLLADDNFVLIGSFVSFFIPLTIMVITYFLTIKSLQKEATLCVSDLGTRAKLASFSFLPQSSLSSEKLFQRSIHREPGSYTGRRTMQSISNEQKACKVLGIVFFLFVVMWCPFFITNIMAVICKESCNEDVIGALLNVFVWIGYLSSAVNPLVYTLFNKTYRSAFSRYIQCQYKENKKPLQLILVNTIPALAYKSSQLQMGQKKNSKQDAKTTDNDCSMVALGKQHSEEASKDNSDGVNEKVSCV
T3 sequence (P14416 whole entry): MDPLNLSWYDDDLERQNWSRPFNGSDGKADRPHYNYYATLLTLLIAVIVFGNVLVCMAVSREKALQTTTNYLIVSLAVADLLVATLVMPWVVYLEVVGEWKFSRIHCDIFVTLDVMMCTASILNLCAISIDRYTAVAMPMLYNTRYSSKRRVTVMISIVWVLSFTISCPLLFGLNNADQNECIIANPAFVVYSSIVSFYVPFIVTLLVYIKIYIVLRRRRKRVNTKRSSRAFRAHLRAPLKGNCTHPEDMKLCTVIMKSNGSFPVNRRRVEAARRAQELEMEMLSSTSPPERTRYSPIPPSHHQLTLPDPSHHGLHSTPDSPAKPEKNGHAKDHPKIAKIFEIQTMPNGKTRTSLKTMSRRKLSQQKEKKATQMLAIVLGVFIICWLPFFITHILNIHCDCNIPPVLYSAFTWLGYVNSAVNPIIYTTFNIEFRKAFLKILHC

Row | Structure (SMILES) | Ki [1] | Ki [2] | Ki [3]
1 | CC(=O)N[C@H]1CC[C@H](CCN2CCN(c3noc4cc(F)c(Cl)cc34)CC2)CC1 [Example 73, N-trans-(4-{2-[4-(5-Chloro-6-fluoro-benzo[d]isoxazol-3-yl)-piperazin-1-yl]-ethyl}-cyclohexyl)-acetamide] | 9.74 nM | 16.8 nM | 559 nM
2 | CO[C@H]1CC[C@H](CC(=O)N[C@H]2CC[C@H](CCN3CCN(c4noc5cc(Cl)c(Cl)cc45)CC3)CC2)CC1 [Example 96, N-trans-(4-{2-[4-(5,6-Dichloro-benzo[d]isoxazol-3-yl)-piperazin-1-yl]-ethyl}-cyclohexyl)-2-trans-(4-methoxy-cyclohexyl)-acetamide] | 35.4 nM | 51.4 nM | 11600 nM
3 | O=C(N[C@H]1CC[C@H](CCN2CCN(c3noc4cc(Cl)c(Cl)cc34)CC2)CC1)C1CCOCC1 [Example 95, Tetrahydro-pyran-4-carboxylic acid N-trans-(4-{2-[4-(5,6-dichloro-benzo[d]isoxazol-3-yl)-piperazin-1-yl]-ethyl}-cyclohexyl)-amide] | 117 nM | 49.9 nM | 7950 nM
4 | COC1(C)CCC(CC(=O)N[C@H]2CC[C@H](CCN3CCN(c4noc5cc(Cl)ccc45)CC3)CC2)CC1 (stereo partly drawn) [Example 39, N-trans-(4-{2-[4-(6-Chloro-benzo[d]isoxazol-3-yl)-piperazin-1-yl]-ethyl}-cyclohexyl)-2-(4-methoxy-4-methyl-cyclohexyl)-acetamide] | 23.4 nM | 4.14 nM | 3800 nM
5 | O=C(N[C@H]1CC[C@H](CCN2CCN(c3noc4ccc(F)cc34)CC2)CC1)C1CCOCC1 [Example 7, Tetrahydro-pyran-4-carboxylic acid-trans-(4-{2-[4-(5-fluoro-benzo[d]isoxazol-3-yl)-piperazin-1-yl]-ethyl}-cyclohexyl)-amide] | 11.6 nM | 13.8 nM | 654 nM
6 | CS(=O)(=O)CCC(=O)N[C@H]1CC[C@H](CCN2CCN(c3noc4cc(F)c(Cl)cc34)CC2)CC1 [Example 90, N-trans-(4-{2-[4-(5-Chloro-6-fluoro-benzo[d]isoxazol-3-yl)-piperazin-1-yl]-ethyl}-cyclohexyl)-3-methanesulfonyl-propionamide] | 14.3 nM | 7.64 nM | 1190 nM
7 | COCCC(=O)N[C@H]1CC[C@H](CCN2CCN(c3noc4ccccc34)CC2)CC1 [Example 1, N-trans-{4-[2-(4-benzo[d]isoxazol-3-yl-piperazin-1-yl)-ethyl]-cyclohexyl}-3-methoxy-propionamide] | 12.1 nM | 4.88 nM | 347 nM
8 | COCC(=O)N[C@H]1CC[C@H](CCN2CCN(c3noc4cc(F)c(C)cc34)CC2)CC1 [Example 107, N-trans-(4-{2-[4-(6-Fluoro-5-methyl-benzo[d]isoxazol-3-yl)-piperazin-1-yl]-ethyl}-cyclohexyl)-2-methoxy-acetamide] | 20 nM | 11.2 nM | 674 nM
9 | O=C(CC1CCCCO1)N[C@H]1CC[C@H](CCN2CCN(c3noc4cc(Cl)ccc34)CC2)CC1 (stereo partly drawn) [Example 35, N-trans-(4-{2-[4-(6-Chloro-benzo[d]isoxazol-3-yl)-piperazin-1-yl]-ethyl}-cyclohexyl)-2-(tetrahydro-pyran-2-yl)-acetamide] | 17.2 nM | 4.8 nM | 899 nM
10 | CCC(=O)N[C@H]1CC[C@H](CCN2CCN(c3noc4cc(F)c(F)cc34)CC2)CC1 [Example 59, N-trans-(4-{2-[4-(5,6-Difluoro-benzo[d]isoxazol-3-yl)-piperazin-1-yl]-ethyl}-cyclohexyl)-propionamide] | 9.88 nM | 14.8 nM | 389 nM
11 | Cc1cc2c(N3CCN(CC[C@H]4CC[C@H](NC(=O)C[C@H](O)C(F)(F)F)CC4)CC3)noc2cc1F [Example 116, (S)-4,4,4-Trifluoro-N-trans-(4-{2-[4-(6-fluoro-5-methyl-benzo[d]isoxazol-3-yl)-piperazin-1-yl]-ethyl}-cyclohexyl)-3-hydroxy-butyramide] | 20 nM | 33 nM | 3280 nM
12 | CO[C@H]1CC[C@H](CC(=O)N[C@H]2CC[C@H](CCN3CCN(c4noc5cc(C)ccc45)CC3)CC2)CC1 [Example 100, 2-trans-(4-Methoxy-cyclohexyl)-N-trans-(4-{2-[4-(6-methyl-benzo[d]isoxazol-3-yl)-piperazin-1-yl]-ethyl}-cyclohexyl)-acetamide] | 17.7 nM | 5.3 nM | 494 nM
13 | O=C(CO)N[C@H]1CC[C@H](CCN2CCN(c3noc4cc(F)c(Cl)cc34)CC2)CC1 [Example 87, N-trans-(4-{2-[4-(5-Chloro-6-fluoro-benzo[d]isoxazol-3-yl)-piperazin-1-yl]-ethyl}-cyclohexyl)-2-hydroxy-acetamide] | 9.97 nM | 8.6 nM | 401 nM
14 | O=C(CC1C[C@@H]2CC[C@H]1O2)N[C@H]1CC[C@H](CCN2CCN(c3noc4ccc(F)cc34)CC2)CC1 (stereo in doubt) [Example 19, N-trans-(4-{2-[4-(5-Fluoro-benzo[d]isoxazol-3-yl)-piperazin-1-yl]-ethyl}-cyclohexyl)-2-(1R,4S)-7-oxa-bicyclo[2.2.1]hept-2-yl-acetamide] | 36 nM | 20.6 nM | 1020 nM
15 | O=C(CO)N[C@H]1CC[C@H](CCN2CCN(c3noc4cc(Cl)ccc34)CC2)CC1 [Example 42, N-trans-(4-{2-[4-(6-Chloro-benzo[d]isoxazol-3-yl)-piperazin-1-yl]-ethyl}-cyclohexyl)-2-hydroxy-acetamide] | 11 nM | 6.99 nM | 809 nM
16 | Cc1cc2c(N3CCN(CC[C@H]4CC[C@H](NC(=O)CC5CC5)CC4)CC3)noc2cc1F [Example 109, 2-Cyclopropyl-N-trans-(4-{2-[4-(6-fluoro-5-methyl-benzo[d]isoxazol-3-yl)-piperazin-1-yl]-ethyl}-cyclohexyl)-acetamide] | 14.5 nM | 32.6 nM | 10000 nM

Now those with a lower Ki [1], led by results:

Row | Ki [1] | Ki [2] | Ki [3] | Structure (SMILES)
17 | 8.78 nM | 22.8 nM | 918 nM | COC(CCC(=O)N[C@H]1CC[C@H](CCN2CCN(c3noc4ccc(F)cc34)CC2)CC1)OC [Example 28, N-trans-(4-{2-[4-(5-Fluoro-benzo[d]isoxazol-3-yl)-piperazin-1-yl]-ethyl}-cyclohexyl)-4,4-dimethoxy-butyramide]
18 | 7.71 nM | 27.2 nM | 1710 nM | O=C(CC1CCOCC1)N[C@H]1CC[C@H](CCN2CCN(c3noc4ccc(F)cc34)CC2)CC1 [Example 8, N-trans-(4-{2-[4-(5-Fluoro-benzo[d]isoxazol-3-yl)-piperazin-1-yl]-ethyl}-cyclohexyl)-2-(tetrahydro-pyran-4-yl)-acetamide]
19 | 7.15 nM | 68.1 nM | 852 nM | CCC(=O)N[C@H]1CC[C@H](CCN2CCN(c3noc4cc(Cl)c(F)cc34)CC2)CC1 [Example 70, N-trans-(4-{2-{4-(6-Chloro-5-fluoro-benzo[d]isoxazol-3-yl)-piperazin-1-yl]-ethyl}-cyclohexyl)-propionamide]
20 | 6.06 nM | 2.26 nM | 2300 nM | O=C(CC1OCCCO1)N[C@H]1CC[C@H](CCN2CCN(c3noc4cc(F)c(Cl)cc34)CC2)CC1 [Example 77, N-trans-(4-{2-[4-(5-Chloro-6-fluoro-benzo[d]isoxazol-3-yl)-piperazin-1-yl]-ethyl}-cyclohexyl)-2-[1,3]dioxan-2-yl-acetamide]
21 | 5.85 nM | 8.55 nM | 11100 nM | O=C(N[C@H]1CC[C@H](CCN2CCN(c3noc4cc(F)c(Cl)cc34)CC2)CC1)C1CC(Cl)C1 (stereo partly drawn) [Example 83, 3-Chloro-cyclobutanecarboxylic acid N-trans-(4-{2-[4-(5-chloro-6-fluoro-benzo[d]isoxazol-3-yl)-piperazin-1-yl]-ethyl}-cyclohexyl)-amide]
22 | 5.8 nM | 5.92 nM | 207 nM | CCC(=O)N[C@H]1CC[C@H](CCN2CCN(c3noc4cc(C)ccc34)CC2)CC1 [Example 99, N-trans-(4-{2-[4-(6-Methyl-benzo[d]isoxazol-3-yl)-piperazin-1-yl]-ethyl}-cyclohexyl)-propionamide]
23 | 4.33 nM | 3.51 nM | 119 nM | O=C(CC1CCOCC1)N[C@H]1CC[C@H](CCN2CCN(c3noc4cc(F)ccc34)CC2)CC1 [Example 112, N-trans-(4-{2-[4-(6-Fluoro-benzo[d]isoxazol-3-yl)-piperazin-1-yl]-ethyl}-cyclohexyl)-2-(tetrahydro-pyran-4-yl)-acetamide]
24 | 3.37 nM | 28.1 nM | 1070 nM | CS(=O)(=O)N[C@H]1CC[C@H](CCN2CCN(c3noc4ccc(F)cc34)CC2)CC1 [Example 14, N-trans-(4-{2-[4-(5-Fluoro-benzo[d]isoxazol-3-yl)-piperazin-1-yl]-ethyl}-cyclohexyl)-methanesulfonamide]
25 | 2.56 nM | 31.6 nM | 725 nM | COCCC(=O)N[C@H]1CC[C@H](CCN2CCN(c3noc4ccc(F)cc34)CC2)CC1 [Example 5, N-trans-(4-{2-{4-(5-Fluoro-benzo[d]isoxazol-3-yl)-piperazin-1-yl]-ethyl}-cyclohexyl)-3-methoxy-propionamide]
26 | 2.23 nM | 26.3 nM | 1970 nM | COCCC(=O)N[C@H]1CC[C@H](CCN2CCN(c3noc4cc(Cl)c(Cl)cc34)CC2)CC1 [Example 94, N-trans-(4-{2-[4-(5,6-Dichloro-benzo[d]isoxazol-3-yl)-piperazin-1-yl]-ethyl}-cyclohexyl)-3-methoxy-propionamide]
